The values below come from patent publication US6362369B1, “Phthalic acid diamide derivatives fluorine-containing aniline compounds as starting material, agricultural and horticultural insecticides, and a method for application of the insecticides” (Nihon Nohyaku Co., Ltd., priority 1997, dated 2002).

Type in all cases: in vivo
Experiment [1] relates to diamondback moth (Plutella xylostella). The experiment is described as follows: Insecticidal effect on diamondback moth (Test Example 1). The following applies: for Insecticidal effect, Test Example 1 / Insecticidal effect (Test Example 1), judged from mortality: diamondback moth; for Insecticidal effect on diamondback moth (Test Example 1), judged grade: mortality judged according to the criterion shown in Test Example 1; for Insecticidal effect (Test Example 1), judged from mortality: judged by the criterion of Test Example 1. The essentials: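 Triplicate groups of 10 insects: eggs laid on Chinese cabbage seedling by adults, seedling immersed then air-dried, kept at 25° C. Day-6 hatch counts gave mortality, rated by criterion.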

The subject of experiment [2] is common cutworm (Spodoptera Litura). The experiment in a line: Insecticidal effect on common cutworm (Test Example 2). The following applies: 500 ppm, 25° C.; for Insecticidal effect, Test Example 2: cabbage leaf immersed; for Insecticidal effect, Test Example 2 / Insecticidal effect on common cutworm (Test Example 2), judged grade: eight days after inoculation; for Insecticidal effect on common cutworm (Test Example 2), judged grade / Insecticidal effect (Test Example 2), judged from mortality: cabbage leaf dip; for Insecticidal effect on common cutworm (Test Example 2), judged grade: second-instar larvae; for Insecticidal effect (Test Example 2), judged from mortality: 8 days after inoculation. In short, it runs like this:
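Insecticidal effect was rated from percent mortality of second-instar larvae exposed to air-dried treatment at 25° C for 8 days.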

The test system of experiment [3] is rice leafroller (Cnaphalocrocis medinalis). The experiment in a line: Insecticidal effect on rice leafroller (Test Example 3). The following applies: 500 ppm, 25° C., humidity 70%; for Insecticidal effect, Test Example 3: rice lamina immersed; for Insecticidal effect, Test Example 3 / Insecticidal effect on rice leafroller (Test Example 3), judged grade: four days after inoculation; for Insecticidal effect on rice leafroller (Test Example 3), judged grade / Insecticidal effect (Test Example 3), judged from mortality: rice lamina dip; for Insecticidal effect on rice leafroller (Test Example 3), judged grade: third-instar larvae; for Insecticidal effect (Test Example 3), judged from mortality: 4 days after inoculation. The essentials:
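Insecticidal effect is judged by a predefined criterion from dead/alive counts four days after infesting air-dried lamina with third-instar larvae, kept on moistened filter paper at 25° C, 70% humidity.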

The mark [4] stands for this setting: judged by the mortality criterion of Test Example 1.
[5] abbreviates: second-instar larvae of common cutworm.
Setting [6] is: third-instar larvae of rice leafroller.
Where [7] appears, read: mortality judged by criterion of Test Example 1.
Where [8] appears, read: common cutworm second-instar larvae.
The mark [9] stands for this setting: rice leafroller third-instar larvae.

Take `CC(C)NC(=O)c1c(Cl)cccc1C(=O)Nc1ccc(Cl)cc1F` [compound 115]: the “Insecticidal effect, Test Example 1” value in experiment [1] (setting [4]) is reported as “A (100)”. In experiment [2] (setting [5]), the “Insecticidal effect, Test Example 2” value was “C (89-80)”. The “Insecticidal effect, Test Example 3” value in experiment [3] (setting [6]) is listed as “A (100)”.
As to `Cc1cc(C(F)(F)C(F)(F)C(F)(F)F)ccc1NC(=O)c1cc(F)ccc1C(=O)NC(C)C` [compound 533], the “Insecticidal effect on diamondback moth (Test Example 1), judged grade” value (shortened to “Insecticidal effect on diamondback moth”) in experiment [1] is “A (100)”. Further, the “Insecticidal effect on common cutworm (Test Example 2), judged grade” value (shortened to “Insecticidal effect on common cutworm”) in experiment [2] is on record as “A (100)”. Moreover, in experiment [3], the “Insecticidal effect on rice leafroller (Test Example 3), judged grade” value (“Insecticidal effect on rice leafroller” for short) is given as “A (100)”.
Take `CC(C)NC(=O)c1c(C(=O)Nc2ccc(C(F)(F)C(F)(F)C(F)(F)F)cc2)cccc1[N+](=O)[O-]` [compound 609]: in experiment [1], the “Insecticidal effect on diamondback moth” value is listed as “A (100)”. Moreover, the “Insecticidal effect on common cutworm” value in experiment [2] is “B (99-90)”. Besides, the “Insecticidal effect on rice leafroller” value in experiment [3] is given as “A (100)”.
`CC(C)NC(=O)c1c(I)cccc1C(=O)Nc1ccc(SC(F)(F)Br)cc1` [compound 1112]: the “Insecticidal effect, Test Example 1” value in experiment [1] (setting [7]) is recorded as “A (100)”. Also, the “Insecticidal effect, Test Example 2” value in experiment [2] (setting [8]) is on record as “A (100)”. The “Insecticidal effect, Test Example 3” value in experiment [3] (setting [9]) is recorded as “A (100)”.
In the case of `CCN(CC)C(=O)c1c(I)cccc1C(=O)Nc1ccc(-c2ccc(F)cc2)cc1C` [compound 1614], the “Insecticidal effect (Test Example 1), judged from mortality” value in experiment [1] is recorded as “A (100)”. Further, the “Insecticidal effect (Test Example 2), judged from mortality” value in experiment [2] (setting [5]) is “C (89-80)”. Moreover, the “Insecticidal effect (Test Example 3), judged from mortality” value in experiment [3] (setting [6]) is on record as “A (100)”.
For the compound `CC(C)NC(=O)c1c(I)cccc1C(=O)Nc1ccc2nc(C(F)(F)C(F)(F)C(F)(F)F)oc2c1` [compound 1636], the “Insecticidal effect (Test Example 1), judged from mortality” value in experiment [1] is on record as “A (100)”. For the same compound, the “Insecticidal effect (Test Example 2), judged from mortality” value in experiment [2] (setting [5]) is “D (79-50)”. Besides, in experiment [3] (setting [6]), the “Insecticidal effect (Test Example 3), judged from mortality” value is “A (100)”.
Regarding `CC(C)NC(=O)c1c(Cl)cccc1C(=O)Nc1cc2c(cc1Cl)OC(F)(F)O2` [compound 1623], the “Insecticidal effect (Test Example 1), judged from mortality” value in experiment [1] is “A (100)”. In addition, in experiment [2] (setting [5]), the “Insecticidal effect (Test Example 2), judged from mortality” value is on record as “C (89-80)”. Further, in experiment [3] (setting [6]), the “Insecticidal effect (Test Example 3), judged from mortality” value is reported as “A (100)”.
On to `CCc1cc(C(F)(C(F)(F)F)C(F)(F)F)ccc1NC(=O)c1cccc(I)c1C(=O)NC(C)C` [compound 1714], for which, in experiment [1], the “Insecticidal effect (Test Example 1), judged from mortality” value is listed as “A (100)”. Besides, in experiment [2] (setting [5]), the “Insecticidal effect (Test Example 2), judged from mortality” value is on record as “A (100)”. The “Insecticidal effect (Test Example 3), judged from mortality” value in experiment [3] (setting [6]) is “A (100)”.
As to `Cc1cc(OC(F)(F)Br)ccc1NC(=O)c1cccc(Br)c1C(=O)NC(C)C` [compound 290], in experiment [1] (setting [4]), the “Insecticidal effect, Test Example 1” value is recorded as “A (100)”. Also, in experiment [2] (setting [5]), the “Insecticidal effect, Test Example 2” value was “A (100)”. Further, the “Insecticidal effect, Test Example 3” value in experiment [3] (setting [6]) is reported as “A (100)”.
As to `CC(C)NC(=O)c1c(I)cccc1C(=O)Nc1ccc([S+]([O-])C(F)(F)F)cc1` (stereo not drawn) [compound 1002], the “Insecticidal effect, Test Example 1” value in experiment [1] (setting [7]) was “A (100)”. The “Insecticidal effect, Test Example 2” value in experiment [2] (setting [8]) was “A (100)”. Further, the “Insecticidal effect, Test Example 3” value in experiment [3] (setting [9]) is listed as “A (100)”.
For the compound `Cc1cc(Oc2c(F)c(F)c(F)c(F)c2F)ccc1NC(=O)c1cccc(I)c1C(=O)NC(C)C` [compound 397], the “Insecticidal effect, Test Example 1” value in experiment [1] (setting [4]) was “A (100)”. Besides, the “Insecticidal effect, Test Example 2” value in experiment [2] (setting [5]) is listed as “A (100)”. Further, the “Insecticidal effect, Test Example 3” value in experiment [3] (setting [6]) was “A (100)”.
As for `COc1ccc(NC(=O)c2cccc(Br)c2C(=O)NC(C)C)c(C)c1` [compound 282], the “Insecticidal effect, Test Example 1” value in experiment [1] (setting [4]) was “A (100)”. For the same compound, in experiment [2] (setting [5]), the “Insecticidal effect, Test Example 2” value is recorded as “A (100)”. Moreover, the “Insecticidal effect, Test Example 3” value in experiment [3] (setting [6]) is listed as “A (100)”.
As to `CC(C)NC(=O)c1c(Cl)cccc1C(=O)Nc1ccc2c(c1)OC(F)(F)C2(F)F` [compound 973], the “Insecticidal effect, Test Example 1” value in experiment [1] (setting [7]) was “A (100)”. Besides, in experiment [2] (setting [8]), the “Insecticidal effect, Test Example 2” value is “A (100)”. In addition, in experiment [3] (setting [9]), the “Insecticidal effect, Test Example 3” value was “A (100)”.
With `CC(C)(C)NC(=O)c1c(Cl)cccc1C(=O)Nc1ccc(OC(F)(F)F)cc1` [compound 936], the “Insecticidal effect on diamondback moth” value in experiment [1] is given as “A (100)”. Also, the “Insecticidal effect on common cutworm” value in experiment [2] is listed as “A (100)”. The “Insecticidal effect on rice leafroller” value in experiment [3] is listed as “A (100)”.
Regarding `CC(C)(C)NC(=O)c1c(I)cccc1C(=O)Nc1ccc(C(F)(C(F)(F)F)C(F)(F)F)cc1Cl` [compound 1723], the “Insecticidal effect (Test Example 1), judged from mortality” value in experiment [1] is reported as “A (100)”. For the same compound, in experiment [2] (setting [5]), the “Insecticidal effect (Test Example 2), judged from mortality” value is reported as “A (100)”. In experiment [3] (setting [6]), the “Insecticidal effect (Test Example 3), judged from mortality” value is “A (100)”.
